Measured values published in ChEMBL document CHEMBL1142248, “Structure-activity relationships and pharmacokinetic parameters of quinoline acylsulfonamides as potent and selective antagonists of the EP(4) receptor” (Bioorg Med Chem Lett, 2008).

Legend:
[1] = target: T1, Prostaglandin E2 receptor EP4 subtype (Homo sapiens, UniProt P35408); test: Binding affinity to human EP4 receptor expressed in HEK293 cells in presence of 10% human serum; format: cell-based
[2] = target: T1, Prostaglandin E2 receptor EP4 subtype; test: Binding affinity to human EP4 receptor expressed in HEK293 cells; format: cell-based
Rattus norvegicus = species: Rattus norvegicus; test: Antiinflammatory activity against adjuvant-induced rat arthritis model; format: functional

T1 sequence (P35408 whole entry): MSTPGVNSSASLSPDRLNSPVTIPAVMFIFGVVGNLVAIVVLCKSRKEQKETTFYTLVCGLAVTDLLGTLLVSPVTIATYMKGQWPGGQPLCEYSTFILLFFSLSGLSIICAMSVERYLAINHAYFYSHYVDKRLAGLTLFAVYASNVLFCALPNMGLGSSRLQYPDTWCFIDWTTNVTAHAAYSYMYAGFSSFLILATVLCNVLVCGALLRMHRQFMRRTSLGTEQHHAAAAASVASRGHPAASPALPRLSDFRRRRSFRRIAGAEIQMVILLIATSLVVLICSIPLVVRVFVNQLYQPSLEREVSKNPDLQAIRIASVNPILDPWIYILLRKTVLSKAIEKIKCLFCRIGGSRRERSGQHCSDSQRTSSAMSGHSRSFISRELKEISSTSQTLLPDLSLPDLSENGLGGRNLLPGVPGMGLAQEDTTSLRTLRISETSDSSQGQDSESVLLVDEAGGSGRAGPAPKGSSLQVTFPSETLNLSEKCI

Compound	Ki [1] [nM]	Ki [2] [nM]	ED50 (Rattus norvegicus) [mg/kg]
CCOc1c2c(c(OCC)c3ccccc13)C(=O)N(c1ccc(CS(=O)(=O)NC(=O)C3CCCc4ccccc43)cc1)C2 (configuration not stated)	940	1	–
CCOc1c2c(c(OCC)c3ccccc13)C(=O)N(c1ccc(CS(=O)(=O)NC(=O)C(c3ccccc3)c3ccccc3)cc1)C2	> 4000	7.9	–
CCOc1c2c(c(OCC)c3ncccc13)CN(c1ccc(CS(=O)(=O)NC(=O)C3(c4ccccc4OC)CC3)cc1C)C2=O	4.2	0.55	–
CCOc1c2c(c(OCC)c3ncccc13)CN(c1ccc(CS(=O)(=O)NC(=O)Cc3ccncc3)cc1C)C2=O	160	9.8	–
CCOc1c2c(c(OCC)c3ccccc13)C(=O)N(c1ccc(CS(=O)(=O)NC(=O)Cc3ccccc3)cc1)C2	> 4000	0.31	–
CCOc1ccccc1CC(=O)NS(=O)(=O)Cc1ccc(N2Cc3c(c(OCC)c4cccnc4c3OCC)C2=O)c(C)c1	8.9	0.27	–
CCOc1c2c(c(OCC)c3ncccc13)CN(c1ccc(CS(=O)(=O)NC(=O)Cc3ccccc3F)cc1C)C2=O	34	0.48	–
CCOc1c2c(c(OCC)c3ncccc13)CN(c1ccc(CS(=O)(=O)NC(=O)Cc3ccccc3OC(F)F)cc1C)C2=O	13	0.32	–
COc1ccccc1C1(C(=O)NS(=O)(=O)Cc2ccc(N3Cc4c(c(OCC(F)(F)F)c5cccnc5c4OCC(F)(F)F)C3=O)c(C)c2)CC1	12	0.95	–
CCOc1c2c(c(OCC)c3ncccc13)CN(c1ccc(CS(=O)(=O)NC(=O)Cc3ccccc3Cl)cc1C)C2=O	37	0.27	–
COc1ccccc1CC(=O)NS(=O)(=O)Cc1ccc(N2Cc3c(c(OC(C)C)c4cccnc4c3OC(C)C)C2=O)c(C)c1	26	0.36	–
CCOc1c2c(c(OCC)c3ccccc13)C(=O)N(c1ccc(CS(=O)(=O)NC(=O)Cc3c(C)cc(C)cc3C)cc1)C2	380	0.43	–
CCOc1c2c(c(OCC)c3ncccc13)CN(c1ccc(CS(=O)(=O)NC(=O)Cc3ccccc3C(F)(F)F)cc1C)C2=O	350	0.43	–
CCOc1c2c(c(OCC)c3ccccc13)C(=O)N(c1ccc(CS(=O)(=O)NC(=O)Cc3cc(OC)ccc3OC)cc1)C2	38	0.37	–
COc1ccccc1CC(=O)NS(=O)(=O)Cc1ccc(N2Cc3c(c(OCC(F)(F)F)c4cccnc4c3OCC(F)(F)F)C2=O)c(C)c1	17	0.38	–
CCOc1c2c(c(OCC)c3ncccc13)CN(c1ccc(CS(=O)(=O)NC(=O)Cc3c(Cl)cccc3Cl)cc1C)C2=O	4.8	0.28	–
CCOc1c2c(c(OCC)c3ccccc13)C(=O)N(c1ccc(CS(=O)(=O)NC(=O)CCc3ccsc3)cc1)C2	> 4000	4.2	–
CCOc1c2c(c(OCC)c3ncccc13)C(=O)N(c1ccc(CS(=O)(=O)NC(=O)Cc3ccccc3)cc1C)C2	660	3.3	–
CS(=O)(=O)c1ccc(C2=C(c3ccccc3)C(=O)OC2)cc1 [ROFECOXIB]	–	–	0.74
CCOc1c2c(c(OCC)c3ncccc13)CN(c1ccc(CS(=O)(=O)NC(=O)Cc3ccccc3)cc1C)C2=O	31	0.76	–
CCOc1c2c(c(OCC)c3ccccc13)C(=O)N(c1ccc(CS(=O)(=O)NC(=O)COc3ccccc3)cc1)C2	1200	0.38	–
CCOc1c2c(c(OCC)c3ccccc13)C(=O)N(c1ccc(CS(=O)(=O)NC(=O)Cn3nccc3C)cc1)C2	600	2	–
CCOc1c2c(c(OCC)c3ccccc13)C(=O)N(c1ccc(CS(=O)(=O)NC(=O)Cc3cccc(OC)c3)cc1)C2	1600	2.4	–
CCOc1c2c(c(OCC)c3ccccc13)C(=O)N(c1ccc(CS(=O)(=O)NC(=O)Cc3ccccc3)cc1C)C2	29	0.25	–
CCOc1c2c(c(OCC)c3ncccc13)CN(c1ccc(CS(=O)(=O)NC(=O)Cc3ccccn3)cc1C)C2=O	13	2.4	–
CCOc1c2c(c(OCC)c3ncccc13)CN(c1ccc(CS(=O)(=O)NC(=O)Cc3cccnc3)cc1C)C2=O	48	2.8	–
CCOc1c2c(c(OCC)c3ncccc13)CN(c1ccc(CS(=O)(=O)NC(=O)C3(c4c(OC)cccc4OC)CC3)cc1C)C2=O	2.3	0.54	–
CCOc1c2c(c(OCC)c3ccccc13)C(=O)N(c1ccc(CS(=O)(=O)NC(=O)Cc3cccc4ccccc34)cc1)C2	4.8	0.43	–
CCOc1c2c(c(OCC)c3ncccc13)CN(c1ccc(CS(=O)(=O)NC(=O)Cc3ccccc3OC(F)(F)F)cc1C)C2=O	56	0.21	–
